Experimental data taken from the supplement of paper PMC10307832.

Tests used:
Experiment in all cases: relative viability (nuclei count vs DMSO), 5 days (fraction); higher = more cells survive
[1] = compound: COc1cc2ncn(-c3cc(OCc4ccccc4C(F)(F)F)c(C(N)=O)s3)c2cc1OC + CC(=O)Nc1cccc(-n2c(=O)n(C3CC3)c(=O)c3c(Nc4ccc(I)cc4F)n(C)c(=O)c(C)c32)c1 [Trametinib] (partner 0.02 µM)
In short: (§1)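 A single step with final 0.05% Triton X-100, 1% formaldehyde and 1 ug/ml Hoechst fixed the cells and stained nuclei 5 days after treatment. Lung cancer cell lines in 1536-well plates had been treated by pin tool the day after seeding with one drug alone or a fixed anchor-drug dose plus five library-drug doses (not always all listed) in √10 steps, and nuclei were counted on 4× images. Relative viability is the ratio of nuclei in treated wells to nuclei in vehicle wells, taken as the median of duplicate plates.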

[2] = compound: COc1cc2ncn(-c3cc(OCc4ccccc4C(F)(F)F)c(C(N)=O)s3)c2cc1OC + CS(=O)(=O)CCNCc1ccc(-c2ccc3ncnc(Nc4ccc(OCc5cccc(F)c5)c(Cl)c4)c3c2)o1 [Lapatinib] (partner 2 µM)
In short: as §1

[3] = compound: COc1cc2ncn(-c3cc(OCc4ccccc4C(F)(F)F)c(C(N)=O)s3)c2cc1OC + N=C(N)NC(=N)NCCc1ccccc1 [Phenformin] (partner 250 µM)
In short: as §1

[4] = compound: COc1cc2ncn(-c3cc(OCc4ccccc4C(F)(F)F)c(C(N)=O)s3)c2cc1OC + O=C(c1cc(Cc2n[nH]c(=O)c3ccccc23)ccc1F)N1CCN(C(=O)C2CC2)CC1 [Olaparib] (partner 8 µM)
In short: as §1

Cell Line | relative viability ([1]; first compound 0.05 µM) | relative viability ([1]; first compound 0.1581 µM) | relative viability ([1]; first compound 0.5 µM) | relative viability ([1]; first compound 1.581 µM) | relative viability ([1]; first compound 5 µM) | relative viability ([2]; first compound 0.05 µM) | relative viability ([2]; first compound 0.1581 µM) | relative viability ([2]; first compound 0.5 µM) | relative viability ([2]; first compound 1.581 µM) | relative viability ([2]; first compound 5 µM) | relative viability ([3]; first compound 0.05 µM) | relative viability ([3]; first compound 0.1581 µM) | relative viability ([3]; first compound 0.5 µM) | relative viability ([3]; first compound 1.581 µM) | relative viability ([3]; first compound 5 µM) | relative viability ([4]; first compound 0.05 µM) | relative viability ([4]; first compound 0.1581 µM) | relative viability ([4]; first compound 0.5 µM) | relative viability ([4]; first compound 1.581 µM) | relative viability ([4]; first compound 5 µM)
COR-L 105 | 0.446 | 0.436 | 0.438 | 0.353 | 0.326 | 0.373 | 0.365 | 0.277 | 0.255 | 0.292 | 0.426 | 0.441 | 0.353 | 0.29 | 0.221 | 0.709 | 0.687 | 0.595 | 0.335 | 0.369
LK-2 | 0.719 | 0.457 | 0.283 | 0.151 | 0.145 | 1.01 | 0.841 | 0.437 | 0.217 | 0.222 | 0.423 | 0.445 | 0.23 | 0.187 | 0.106 | 0.681 | 0.345 | 0.215 | 0.16 | 0.0981
NCI-H838 | 0.518 | 0.523 | 0.412 | 0.192 | 0.0837 | 1.02 | 1.04 | 0.638 | 0.114 | 0.101 | 0.72 | 0.61 | 0.324 | 0.139 | 0.0964 | 0.491 | 0.679 | 0.365 | 0.0997 | 0.121
SK-LU-1 | 0.469 | 0.297 | 0.324 | 0.295 | 0.223 | 0.833 | 0.842 | 0.427 | 0.246 | 0.197 | 0.563 | 0.519 | 0.216 | 0.163 | 0.15 | 0.39 | 0.372 | 0.272 | 0.197 | 0.207
NCI-H2023 | 0.502 | 0.501 | 0.358 | 0.0995 | 0.0739 | 0.936 | 0.975 | 0.274 | 0.0863 | 0.095 | 0.328 | 0.395 | 0.229 | 0.0904 | 0.0857 | 0.416 | 0.392 | 0.16 | 0.0751 | 0.0692
NCI-H322M | 0.503 | 0.486 | 0.47 | 0.463 | 0.384 | 0.572 | 0.578 | 0.548 | 0.302 | 0.257 | 0.739 | 0.869 | 0.631 | 0.363 | 0.303 | 0.717 | 0.778 | 0.594 | 0.475 | 0.423
NCI-H1666 | 0.837 | 0.776 | 0.653 | 0.455 | 0.41 | 0.905 | 0.674 | 0.298 | 0.229 | 0.325 | 0.591 | 0.554 | 0.337 | 0.315 | 0.299 | 0.79 | 0.786 | 0.622 | 0.56 | 0.466
NCI-H1648 | 0.488 | 0.419 | 0.295 | 0.293 | 0.251 | – | – | – | – | – | – | – | – | – | – | 0.74 | 0.596 | 0.366 | 0.242 | 0.261
NCI-H2087 | 0.239 | 0.196 | 0.143 | 0.0778 | 0.111 | 0.995 | 1.06 | 0.582 | 0.175 | 0.121 | 0.51 | 0.458 | 0.269 | 0.111 | 0.107 | 0.432 | 0.493 | 0.346 | 0.098 | 0.0728
